From US20190022225A1, “PROTOCOL FOR INCREASING LIFE EXPECTANCY IN A TEST SUBJECT” (Mayo Foundation for Medical Education and Research, priority 2015, published 2019)

Key:
[1] = system: non-senescent foreskin fibroblasts (HCA2), lung fibroblasts (IMR90), mouse embryonic fibroblasts (MEF); test: Nutlin-3a toxicity, cell counts of non-senescent fibroblasts; type: cell-based, human; mouse; details: 0, 2.5, 10 μM, 9 days
Description: Non-senescent foreskin fibroblasts (HCA2), lung fibroblasts (IMR90), and mouse embryonic fibroblasts (MEF) were treated with varying concentrations (0, 2.5 μM, and 10 μM) of Nutlin-3a for a period of 9 days to assess Nutlin-3a toxicity. Cell counts were taken at the start (NS start) and end of Nutlin-3a treatment. The difference between counts of cells not treated with Nutlin-3a on day 9 (NS 0) and cell counts determined at day zero (NS start) reflects the cell growth over the indicated time period. […] Decrease in apparent survival between NS 0 and NS 2.5 and between NS 0 and NS 10 reflects a decrease in cell growth. Without wishing to be bound by theory, Nutlin-3a may stabilize p53, leading to cell cycle growth arrest.

[2] = system: p21, p16, IL-1a, CXCL-1, IL-6, IL-8 expression in senescent IMR90 cells; test: qPCR of senescence markers and SASP factors in irradiated senescent IMR90 cells treated with Nutlin-3a; type: cell-based, human
Description: Primary human fibroblast (IMR90) cells were induced to senesce by applying 10 Gy of irradiation. Seven days after irradiation (Day 0), cells were treated with 10 μM Nutlin-3a or vehicle (DMSO) for nine days (Day 9). The drug or vehicle was refreshed every three days. Drug/vehicle was removed at Day 9 and the cells were cultured for an additional three days (Day 12) in media without drug or DMSO. Cells were then collected, mRNA extracted, and cDNA prepared. Quantitative PCR (qPCR) was then performed to detect expression of various genes. Cells were also collected at Day 12 after drug/vehicle had been removed for three days. The data are presented as an average of three samples. Data were normalized to actin and depicted as a ratio to non-senescent cells.

LDLR−/− mice fed a HFD = test: Atherosclerosis model, LDLR-/- mice on high fat diet treated with Nutlin-3A; type: in vivo, mouse
Description: Schematics of two atherosclerosis mouse models are presented in FIGS. 43A-B. The study illustrated in FIG. 43A assessed the extent to which clearance of senescent cells from plaques in LDLR^−/− mice with Nutlin-3A reduces plaque load. Two groups of LDLR^−/− mice (10 weeks) are fed a high fat diet (HFD) (Harlan Teklad TD.88137) having 42% calories from fat, beginning at Week 0 and throughout the study. Two groups of LDLR^−/− mice (10 weeks) are fed normal chow (−HFD). From weeks 0-2, one group of HFD mice and −HFD mice are treated with Nutlin-3A (25 mg/kg, intraperitoneally). One treatment cycle is 14 days treatment, 14 days off. Vehicle is administered to one group of HFD mice and one group of −HFD mice. At week 4 (timepoint 1), one group of mice are sacrificed and to assess presence of senescent cells in the plaques. For the some of the remaining mice, Nutlin-3A and vehicle administration is repeated from weeks 4-6. At week 8 (timepoint 2), the mice are sacrificed and to assess presence of senescent cells in the plaques. The remaining mice are treated with Nutlin-3A or vehicle from weeks 8-10. At week 12 (timepoint 3), the mice are sacrificed and to assess the level of plaque and the number of senescent cells in the plaques.
Plasma lipid levels were measured in LDLR^−/− mice fed a HFD and treated with Nutlin-3A or vehicle at timepoint 1 as compared with mice fed a −HFD (n=3 per group). Plasma was collected mid-afternoon and analyzed for circulating lipids and lipoproteins.
At the end of timepoint 1, LDLR^−/− mice fed a HFD and treated with Nutlin-3A or vehicle were sacrificed (n=3, all groups), and the aortic arches were dissected for RT-PCR analysis of SASP factors and senescent cell markers. Values were normalized to GAPDH and expressed as fold-change versus age-matched, vehicle-treated LDLR^−/− mice on a normal diet.
At the end of timepoint 2, LDLR^−/− mice fed a HFD and treated with Nutlin-3A or vehicle (n=3 for all groups) were sacrificed, and aortic arches were dissected for RT-PCR analysis of SASP factors and senescent cell markers. Values were normalized to GAPDH and expressed as fold-change versus age-matched, vehicle-treated LDLR^−/− mice on a normal diet.
At the end of timepoint 3, LDLR^−/− mice fed a HFD and treated with Nutlin-3A or vehicle (n=3 for all groups) were sacrificed, and aortas were dissected and stained with Sudan IV to detect the presence of lipid. Body composition of the mice was analyzed by MRI, and circulating blood cells were counted by Hemavet. […] As shown in FIGS. 48A-B, the platelet and lymphocyte counts were equivalent between the Nutlin-3A and vehicle treated mice.

C57BL/6J mice = test: Rotarod motor coordination in 23 month old C57BL/6J mice; type: in vivo, mouse
Description: A group of 34 C57BL/6J mice were tested for motor coordination in a rotarod at 23 months of age. Mice were tested for 4 consecutive days. Each session consisted of 4 runs in which the speed of the rotating rod increased from 4 to 40 rpm over 5 minutes. Mice were allowed to run until they fell. The latency to fall was recorded for each run, and averaged to obtain a single value for each session. Half of the mice were then treated with 50 mg/kg nutlin-3a for 14 consecutive days, via IP injection, while the rest of them were sham injected. 3 weeks after the last day of treatment, motor coordination was assessed following the described procedure.
Values higher than 1 correspond to an increase in motor coordination after treatment. The average of 4 runs for each animal and the average (±SEM) for each group are shown.
The average of 4 runs is shown for each day (±SEM).

[3] = system: p16-3MR mice fed a high fat diet; test: Glucose tolerance, insulin tolerance and body parameters in high fat fed p16-3MR mice; type: in vivo, mouse
Description: Groups of p16-3MR mice (n=9) were fed a high fat diet for four months mice or a regular chow diet. Animals were then treated with ganciclovir (3 rounds of 25 mg/kg ganciclovir administered daily for five consecutive days) or vehicle. A glucose bolus was given at time zero, and blood glucose was monitored at 20, 30, 60, and 120 minutes after delivering glucose to determine glucose disposal (see FIG. 69A). […] Insulin sensitivity was also determined (Insulin Tolerance Testing (ITT)). […] Changes in weight, body composition, and food intake were also monitored.

Row | Compound | toxicity to non-senescent fibroblasts (percent growth) [1] | level of p21 mRNA, ratio to non-senescent cells ([2]; 10 μM, day 9) | level of IL-1a mRNA ([2]; 10 μM, day 9 and day 12) | levels of CXCL-1, IL-6 and IL-8 mRNA ([2]; 10 μM, day 9 and day 12) | level of p16 mRNA ([2]; 10 μM, drug present (day 9)) | level of p16 mRNA ([2]; day 12, three days after drug removal) | expression of SASP factors and senescent cell markers in aortic arch (LDLR−/− mice fed a HFD; after 1 treatment cycle (25 mg/kg ip, 14 days on, 14 days off)) | expression of SASP factors and senescent cell markers in aortic arch (LDLR−/− mice fed a HFD; multiple treatment cycles (timepoint 2)) | platelet and lymphocyte counts versus vehicle (LDLR−/− mice fed a HFD; timepoint 3) | mass and body fat composition (LDLR−/− mice fed a HFD; timepoint 3, HFD) | reduction of plaques in the descending aorta (LDLR−/− mice fed a HFD; timepoint 3, three treatment cycles, Sudan IV staining) | rotarod performance (latency to fall) (C57BL/6J mice; 50 mg/kg IP 14 days, after three days of training, p<0.05) | ratio of latency to fall, fourth session after treatment / fourth baseline session (C57BL/6J mice; p<0.01) | rotarod performance over the training period (C57BL/6J mice; p<0.01, 2-way ANOVA) | insulin tolerance testing: decrease in blood glucose ([3]; 0, 14, 30, 60 and 120 minutes) | glucose tolerance test AUC versus vehicle ([3]; 3 rounds of 25 mg/kg daily for five days) | Hemoglobin A1c ([3]; high fat diet) | body weight, body composition (percent of fat), food intake ([3]; mouse, in vivo)
1 | COc1ccc(C2=N[C@@H](c3ccc(Cl)cc3)[C@@H](c3ccc(Cl)cc3)N2C(=O)N2CCNC(=O)C2)c(OC(C)C)c1 [Nutlin-3a] | reduces proliferation but is non-toxic | approximately 90 fold | decreased only after Nutlin-3a had been removed | reduced when Nutlin-3a was present and remained lower after drug removal | did not change | decrease | reduced expression of several SASP factors and senescent cell markers | reduced expression of most markers | equivalent | decreased mass and body fat composition | ~45% | increased rotarod performance | higher average ratio | better performance | – | – | – | –
2 | Nc1nc(O)c2ncn(COC(CO)CO)c2n1 [ganciclovir] | – | – | – | – | – | – | – | – | – | – | – | – | – | – | greater decrease in blood glucose | significantly lower | lower | did not alter
